From article PMC12040169 (PLOS Biology, 2025)

Assay: in vitro
Settings: human, hela cells, % viability

SMILES	viability at 28.5 h, 10 µM [%]	viability at 28.5 h, 10 µM (bulk resorufin, single well) [%]
O=C(COc1ccccc1)NCC1(c2ccccc2)CCOCC1 [CBK067407]	103	
Cc1nnc(NCCO)c2ccccc12 [CBK261448]	112	
CCCC(=O)c1ccc(S(=O)(=O)N2CCCN(Cc3c[nH]nc3-c3ccccc3)CC2)cc1 [CBK062916]	83.9	
CCN(CC)CCNC(=O)c1cccc(Nc2cncc(-c3ccc(O)cc3)n2)c1 [CBK122671]	96.9	
CCn1c(C)cc(C(=O)CSc2nnc(N3CCCC3)n2C2CC2)c1C [CBK306035]	85.5	
FC(F)(F)Oc1cccc(-c2cncc(NCc3ccncc3)n2)c1 [CBK065926]	104	
O=C(Nc1cccc2[nH]ccc12)c1ccoc1 [CBK159659]	94.8	
COc1ccccc1-c1nccnc1OCCC(C)C [CBK106818]	109	
CCNC(=O)Nc1ccc(-c2ccc(S(C)(=O)=O)cc2)c2ccccc12 [CBK083728]	88.1	
N#Cc1ccc(-c2nc3cc(Cl)c(F)cc3[nH]2)cc1 [CBK096290]	90.6	
O=C(Nc1cccc(O)c1)c1ccc(NC(=O)C2CCCO2)cc1 (centres unmarked) [CBK269746]	91.6	
O=C(COc1ccccc1)NCc1ccc(OC2CCNCC2)cc1 [CBK028425T]	98.2	
COC(=O)Nc1ccccc1N1CCN(CCCCN2CCN(c3ccccc3)C2=O)CC1 [CBK024372C]	91.8	
COc1ccc(CN(Cc2ccc(NC(C)=O)cc2)[C@@H]2COC[C@H]2c2ccc(F)cc2)cc1 [CBK286488]	105	
COc1cc(OC)cc(C(=O)N2CCC3(CC2)CC(=O)c2c(OC)cc(OC)cc2O3)c1 [CBK164233]	105	
CCOC(=O)C1(c2ccccc2)CCN(C(=O)c2ccc3nc[nH]c3c2)CC1 [CBK132208]		103
CC(C)Cc1ccc(S(=O)(=O)Nc2ccc3[nH]c(=O)[nH]c3c2)cc1 [CBK270131]	94.3	
O=C(c1ccncc1)N1CCc2ccccc21 [CBK200280]	93.7	
COc1ccc2cc(C(=O)N3CCC(c4ccncc4)CC3)[nH]c2c1 [CBK283799]	86.4	
COc1ccc(C2(C(=O)NCc3ccc4c(c3)OCO4)CC2)cc1 [CBK149829]	103	
COc1ccccc1N1CCN(C(=O)c2ccc3c(c2)no[n+]3[O-])CC1 [CBK091510]	85	
O=C(O)CCc1ccc(-c2cccs2)n1-c1ccc(Cl)c(Cl)c1 [CBK264797]	88.7	
O=C1CCC(=O)N1CCOc1nccnc1N1CCN(CCCn2c(=O)[nH]c3ccccc32)CC1 [CBK084300]	110	

SMILES	viability at 28.5 h, 10 µM [%]	viability at 28.5 h, 10 µM (bulk resorufin, single well) [%]
O=C(Nc1sc2c(c1C(=O)N1CCOCC1)CCCCC2)c1cccs1 [CBK307099]	105	
COc1ccccc1-c1cnn2c(NCC3CCCO3)cc(C)nc12 (centres unmarked) [CBK304529]	84.5	
O=S(=O)(c1ccc(F)c(F)c1F)n1ccc2c(N3CCNCC3)nccc21 [CBK059066C]	106	
CCC1CN(Cc2ccccc2)CCN1c1cncc(Cl)n1 (centres unmarked) [CBK003645]	112	
Cc1nn(C)c(Cl)c1S(=O)(=O)Nc1cccc(-c2nnn[nH]2)c1 [CBK062127]	96	
O=C(COc1ccccc1)Nc1ccc2oc(-c3cccnc3)nc2c1 [CBK262959]	92.1	
O=c1cc(C(F)(F)F)c2ccc(OCc3ccc(Cl)cc3)cc2o1 [CBK058200]	93	
COc1cc(OC)c(CN(C)CCN(C)C)cc1Br [CBK021255]	88.6	
C=CCOc1ccc(-c2nnn(CC(=O)O)n2)cc1 [CBK269772]	87.8	
O=c1nc(CNc2ccc(Br)cc2)[nH][nH]1 [CBK288403]	86.2	
O=C(NCCN1CCOCC1)c1sc2cc(F)ccc2c1Cl [CBK018212]	120	
OCCOc1ccnc2ccccc12 [CBK113395]	95.8	
Cn1cncc1C(=O)N1CCc2ccccc21 [CBK200412]	86.7	
CSc1ccccc1C(=O)NCCN(C)C [CBK269757]	90.9	
COc1cccc(CC(=O)N2CCCC2c2cc(Nc3nc(C)cc(C)n3)cc(C)n2)c1 (centres unmarked) [CBK285999]	90.5	
CSc1ccccc1CNC(=O)c1cc(Br)cnc1N(C)C(C)=O [CBK076478]	106	
COc1ccc(C(=O)NC(=S)Nc2ccc(N3CCN(C)CC3)cc2)cc1[N+](=O)[O-] [CBK266098C]	89	
CC1CN(C)C(C)CC1OC(=O)C(c1ccccc1)c1ccccc1 (centres unmarked) [CBK087393]	105	
CN(Cc1ccccc1)C(=O)CNS(=O)(=O)c1ccc([N+](=O)[O-])cc1 [CBK268586]	107	
CCN(CC1CCOC1)C(=O)c1cn2ccccc2n1 (centres unmarked) [CBK305653]	83.5	
Cc1cc(C)n(C(CC(=O)c2ccccc2)C(=O)O)n1 (centres unmarked) [CBK287209]	90.8	
Cc1ccccc1N1CCC(CNC(=O)CCc2ccnn2C)C1 (centres unmarked) [CBK306543]	89	
CC(=O)Nc1ccc(CNC(=O)c2ccc[nH]2)cc1 [CBK304538]	87.1	

SMILES	viability at 28.5 h, 10 µM [%]	viability at 28.5 h, 10 µM (bulk resorufin, single well) [%]
O=C(CC1CCN(Cc2ccccn2)CC1)Nc1ccc(OC2CCCC2)cc1 [CBK285960]	104	
Cc1ccc(-c2nc3ncccc3o2)cc1NC(=O)c1ccc(-c2cccc([N+](=O)[O-])c2)o1 [CBK268548]	90.7	
O=S(=O)(Nc1cccc(-c2nnn[nH]2)c1)c1ccc(F)cc1 [CBK050470]	88.5	
Nc1nc(=O)n([C@H]2C[C@@H](O)[C@@H](CO)O2)cc1I [CBK201226]	90.4	
COc1ccc(-c2cc(C(=O)N[C@H]3CCN(Cc4ccccc4)C3)cnc2-c2ccccc2)cn1 [CBK037605]	93.9	
COc1ccc(C(=O)C2=C(O)C(=O)N(Cc3cccnc3)C2c2cccc(OC)c2OC)cc1C (centres unmarked) [CBK264906]	92.8	
O=C(C1CCCC1)N1CCC(n2c(=O)oc3ccc(Cl)cc32)CC1 [CBK284344]	96.7	
CN(Cc1ccccc1)C(=O)CCNS(=O)(=O)c1ccccc1 [CBK268585]	103	
O=S(=O)(Nc1cccc(-c2cnco2)c1)c1cccc2cccnc12 [CBK067104]	81	
CC(=O)N1CCN(C(C(=O)O)c2c[nH]c3ccc(NC(=O)C(C)C)cc23)CC1 (centres unmarked) [CBK286634]	89.7	
Cc1cccc(NC(=O)NC(=O)C2CCN(CCOc3ccccc3)CC2)c1 [CBK034868]	89.9	
N/C(=N/O)c1ccc(-n2cncn2)nc1 [CBK020936]	104	
Cc1ccc(CS(=O)(=O)N(CC(C)C)C2CC2)c(F)c1 [CBK306460]	82.9	
Cc1ccc(OCC(=O)Nc2ccc(N3CCN(Cc4ccccc4)CC3)cc2)cc1C [CBK266085]	101	
CCOCc1c(O)ccc2c([N+](=O)[O-])c(C)n(-c3ccc(OC)cc3)c12 [CBK095589]	87.8	
CC(=O)NC1(c2ccc(F)cc2)CCN(C(=O)C2CCC2)CC1 [CBK283492]	109	
O=C(OCC#CCSc1nnc(-c2ccccc2)o1)c1ccc([N+](=O)[O-])cc1 [CBK265588]	107	
O=C(Nc1ccccc1)NC1CC2CCC(C1)N2Cc1nnnn1Cc1ccco1 (centres unmarked) [CBK085071]	107	
O=C(Nc1sc2c(c1C(=O)O)CCC2)c1ccco1 [CBK152436]	101	
O=C(CCN1C(=O)/C(=C/c2ccc(F)cc2)SC1=S)NNC(=O)c1cccnc1 [CBK262862]	104	
Cn1nccc1-c1cc(C(=O)NC2(C)CCC2)c2ccccc2n1 [CBK281605]	92.7	
COc1ccc2c(c1OC)C(=O)N(c1cccc(/C=C/C(=O)O)c1)C2 [CBK109932]	90.3	
Cn1c(=O)n(C)c2cc(CNC(=O)CC3COCCN3)ccc21 (centres unmarked) [CBK307252]	103	

SMILES	viability at 28.5 h, 10 µM [%]	viability at 28.5 h, 10 µM (bulk resorufin, single well) [%]
Cc1cc(C)n(CCOc2nonc2N)n1 [CBK025818]	117	
O=C(NCCCn1cccc1)N1CCN(Cc2ccc(F)cc2)CC1 [CBK306994]	107	
Clc1cncc(-c2ccccc2)n1 [CBK113371]	93.8	
CSc1nc2ccc(NS(=O)(=O)c3ccc(Cl)c(C(=O)O)c3)cc2s1 [CBK297541]	82.6	
CN(C)c1cccc2c(S(=O)(=O)n3c(=O)n(CCc4c[nH]c5ccccc45)c4ccccc43)cccc12 [CBK106511]	85.8	
O=S(=O)(c1ccc(I)cc1)n1ccc2c(N3CCNCC3)cncc21 [CBK081326C]	84.9	
CC(C)c1ccc(S(=O)(=O)NCc2ccc(F)c(F)c2F)cc1 [CBK044717]	102	
Cc1cc(-c2cc(C)n[nH]2)[nH]n1 [CBK262079]	107	
O=C(NCC1CCCN1)c1cc2cc(Cl)ccc2[nH]1 (centres unmarked) [CBK115917C]	104	
Oc1c(Br)cc(Cl)cc1/C=N/Nc1nnc2c(n1)[nH]c1ccccc12 [CBK262041]	114	
O=C(OCc1ccccc1)N1CCC2(CC1)CN(CCO)c1ccccc12 [CBK022627]	105	
CC(=O)c1c(C)[nH]c(C(=O)N2CCN(C3CCN(C)CC3)CC2)c1C [CBK149098]	104	
Cc1ncc(CO)c(/C=N/N=C/c2ccc(O)c(O)c2)c1O [CBK265075]	103	
Cc1ccc(NC(=O)Cn2cnc3c2c(=O)n(C)c(=O)n3C)c(C)c1 [CBK133276]	90.6	
O=C(O)CCSc1nc2ccccc2n1-c1ccccc1 [CBK264215]	100	
CNCC(=O)N1CCC2(CCCC[C@H]3CN(C(C)=O)CC[C@H]3NC(=O)CNC2=O)CC1 [CBK292181]	79.3	
COc1ccc(C2CC(=O)C3=C(C2)NC(C)=C(C#N)C3c2cccc(F)c2)cc1 (centres unmarked) [CBK293922]	91.6	
Cc1ccc(-c2n[nH]c(=S)n2CCC(=O)N(C)Cc2ccc(N3CCCCC3)cc2)cc1 [CBK297904]	106	
Cc1ccc2c(c1)CC(=O)NC21CCN(Cc2cccc(Br)c2)CC1 [CBK039392]	94.7	
O=C1NC(=O)C(CCc2ccccn2)(Cc2cccc(Cl)c2Cl)C(=O)N1c1ccc(Br)cc1 (centres unmarked) [CBK266359]		94.2
